Test results published in patent US3981814A, “Bacteriostatic substituted benzanilide compositions and methods for their use” (Givaudan Corporation, priority 1975, dated 1976).
In brackets after ≈: the same amount, converted by molar mass.

Key:
[1] = Solubility in alcohol and other solvents; type: physicochemical
Staphylococcus aureus = test: In vitro soap bacteriostatic test (agar dilution, spot inoculation, 35°, 48 hours); type: cell-based; conditions: for MIC: Staphylococcus aureus, without soap, read-out: Compound Activity Without Soap: minimum concentration where S. aureus growth is completely inhibited; for Compound Activity With Soap: minimum concentration where S. aureus growth is completely inhibited: ratio of soap to compound 100:1
Method: The antibacterial properties of the compounds prepared in Examples 1 - 14 were tested in soap. The in vitro soap bacteriostatic tests were conducted as follows: The compound is dissolved in a suitable solvent, usually dimethylformamide, to give a 6% solution. One-half ml. aliquot was added to 100 ml. of 3% solution of bar soap stock solution. The solid soap used was a neutral white toilet soap of the "LUX" type. The fatty acids in this soap were of the following composition: This yields an aqueous soap solution containing 30,000 mcg./ml. soap and 300 mcg./ml. compound. The soap/compound ratio in the latter is 100/l. A two-fold serial dilution series is prepared with this solution using sterile distilled water in test tubes such that the final volume in each tube is 2.0 ml. To each test tube is added 28 ml. of molten Dextrose Trypticase Extract Agar (B.B.L.). The tube contents were poured into sterile Petri plates and allowed to harden. The highest final concentration of compound in the serial dilution series is 20 mcg./ml. Plates were spot inoculated with a broth culture of Staphylococcus aureus and incubated at 35° for 48 hours. The lowest concentration completely inhibiting growth of the test organism, in mcg./ml. is recorded as the bacteriostatic concentration of the compound. Tests in the absence of soap are made in a similar manner except that all dilutions are made in solvent. The final concentration in the agar should not be greater than 5%. The results of these tests with the compounds of the present invention as compared with compounds having chemical structures closely related to the compounds of the present invention (designated by the symbol "C") are set forth in the Table. Column 1 contains the data as to the activity of the test solution without soap; column 2 refers to tests in which the ratio of soap to compound is 100:1. […] Growth is observed at the next lower concentration.

in vivo = conditions: rat, determined in rats, oral toxicity
From the text: For example, 4-chloro-3', 5'-di(trifluoromethyl)-benzanilide has an LD50 of […], determined in rats.

Row | solubility in alcohol solvents [1] | MIC (Staphylococcus aureus) [mg/L] | SMILES | Compound Activity With Soap: minimum concentration where S. aureus growth is completely inhibited (Staphylococcus aureus) | LD50 (in vivo) [mg/kg]
1 | – | > 10 | O=C(Nc1ccc(Cl)cc1)c1ccc(Cl)c(Cl)c1 [Compound C33] | B (Inactive at 10 mcg./ml. (highest concentration tested)) | –
2 | – | > 20 | O=C(Nc1cccc(Cl)c1)c1ccc(Cl)c(Cl)c1 [Compound C34] | A (Inactive at 20 mcg./ml. (highest concentration tested)) | –
3 | – | > 10 | O=C(Nc1ccc(Cl)c(Cl)c1)c1ccc(Cl)c(Cl)c1 [Compound C35] | B (Inactive at 10 mcg./ml. (highest concentration tested)) | –
4 | – | > 10 | O=C(Nc1cc(Cl)cc(Cl)c1)c1ccc(Cl)c(Cl)c1 [Compound C36] | B (Inactive at 10 mcg./ml. (highest concentration tested)) | –
5 | – | 10 (≈ 29 µM) | O=C(Nc1ccc(Cl)c(Cl)c1)c1ccc(Br)cc1 [Compound C37] | 20.0 µg/mL | –
6 | – | > 20 | O=C(Nc1ccc(Cl)c(Cl)c1)c1ccc(C(F)(F)F)cc1 [Compound C38] | 10.0 µg/mL | –
7 | – | > 20 | CC(C)(C)c1ccc(C(=O)Nc2cccc(C(F)(F)F)c2)cc1 [Compound C39] | 5.0 µg/mL | –

Continued, molecule first:

Row | SMILES | solubility in alcohol solvents [1] | MIC (Staphylococcus aureus) [mg/L] | Compound Activity With Soap: minimum concentration where S. aureus growth is completely inhibited (Staphylococcus aureus) | LD50 (in vivo) [mg/kg]
8 | O=C(Nc1ccc(Br)c(C(F)(F)F)c1)c1ccc(Br)cc1 [Compound 13, 4,4'-dibromo-α,α,α-trifluoro-m-benzotoluidide] | soluble or fairly soluble | 1.25 (≈ 2.95 µM) | 0.312 µg/mL | –
9 | O=C(Nc1cc(C(F)(F)F)cc(C(F)(F)F)c1)c1ccc(Cl)cc1 [Compound 19, 4-chloro-3',5'-di(trifluoromethyl)-benzanilide] | soluble or fairly soluble | 0.625 (≈ 1.7 µM) | 0.312 µg/mL | 6000
10 | O=C(Nc1cc(C(F)(F)F)cc(C(F)(F)F)c1)c1ccc(Br)cc1 [Compound 20, 4-bromo-α,α,α,α',α',α' -hexafluorobenzo-3',5'-xylidide] | soluble or fairly soluble | 0.312 (≈ 0.757 µM) | 0.312 µg/mL | –
11 | O=C(Nc1cc(C(F)(F)F)cc(C(F)(F)F)c1)c1ccc(F)cc1 [Compound C27] | – | > 20 | 10.0 µg/mL | –
12 | O=C(Nc1cc(C(F)(F)F)cc(C(F)(F)F)c1)c1cccc(C(F)(F)F)c1 [Compound C28] | – | > 10 | B (Inactive at 10 mcg./ml. (highest concentration tested)) | –
13 | O=C(Nc1cc(C(F)(F)F)cc(C(F)(F)F)c1)c1cccc(Br)c1 [Compound C29] | – | > 10 | B (Inactive at 10 mcg./ml. (highest concentration tested)) | –
14 | O=C(Nc1cccc(Cl)c1)c1ccc(Cl)cc1 [Compound C30] | – | > 20 | 5.0 µg/mL | –
15 | O=C(Nc1ccc(Cl)c(Cl)c1)c1ccc(Cl)cc1 [Compound C31] | – | > 20 | 10.0 µg/mL | –
16 | O=C(Nc1cc(Cl)cc(Cl)c1)c1ccc(Cl)cc1 [Compound C32] | – | > 20 | 10.0 µg/mL | –
